Results taken from paper doi:10.1101/2024.01.24.577111v1 (biorxiv, 2024).

Columns and labels:
rat TRPM8 = rat TRPM8 (Rattus norvegicus, UniProt Q8R455); experiment: Fura-2 ratiometric calcium imaging, agonist dose-response; assay type: cell-based
mouse TRPM8 (mTRPM8) = mouse TRPM8 (mTRPM8) (Mus musculus, UniProt Q8R4D5); experiment: whole-cell patch clamp, shift of voltage for half-maximal activation; assay type: cell-based; settings: agonist; 30 µM rapamycin, calcium-free, pH 7.4, 33 °C
mouse TRPM8 (mTRPM8), sequence (Q8R4D5 whole entry): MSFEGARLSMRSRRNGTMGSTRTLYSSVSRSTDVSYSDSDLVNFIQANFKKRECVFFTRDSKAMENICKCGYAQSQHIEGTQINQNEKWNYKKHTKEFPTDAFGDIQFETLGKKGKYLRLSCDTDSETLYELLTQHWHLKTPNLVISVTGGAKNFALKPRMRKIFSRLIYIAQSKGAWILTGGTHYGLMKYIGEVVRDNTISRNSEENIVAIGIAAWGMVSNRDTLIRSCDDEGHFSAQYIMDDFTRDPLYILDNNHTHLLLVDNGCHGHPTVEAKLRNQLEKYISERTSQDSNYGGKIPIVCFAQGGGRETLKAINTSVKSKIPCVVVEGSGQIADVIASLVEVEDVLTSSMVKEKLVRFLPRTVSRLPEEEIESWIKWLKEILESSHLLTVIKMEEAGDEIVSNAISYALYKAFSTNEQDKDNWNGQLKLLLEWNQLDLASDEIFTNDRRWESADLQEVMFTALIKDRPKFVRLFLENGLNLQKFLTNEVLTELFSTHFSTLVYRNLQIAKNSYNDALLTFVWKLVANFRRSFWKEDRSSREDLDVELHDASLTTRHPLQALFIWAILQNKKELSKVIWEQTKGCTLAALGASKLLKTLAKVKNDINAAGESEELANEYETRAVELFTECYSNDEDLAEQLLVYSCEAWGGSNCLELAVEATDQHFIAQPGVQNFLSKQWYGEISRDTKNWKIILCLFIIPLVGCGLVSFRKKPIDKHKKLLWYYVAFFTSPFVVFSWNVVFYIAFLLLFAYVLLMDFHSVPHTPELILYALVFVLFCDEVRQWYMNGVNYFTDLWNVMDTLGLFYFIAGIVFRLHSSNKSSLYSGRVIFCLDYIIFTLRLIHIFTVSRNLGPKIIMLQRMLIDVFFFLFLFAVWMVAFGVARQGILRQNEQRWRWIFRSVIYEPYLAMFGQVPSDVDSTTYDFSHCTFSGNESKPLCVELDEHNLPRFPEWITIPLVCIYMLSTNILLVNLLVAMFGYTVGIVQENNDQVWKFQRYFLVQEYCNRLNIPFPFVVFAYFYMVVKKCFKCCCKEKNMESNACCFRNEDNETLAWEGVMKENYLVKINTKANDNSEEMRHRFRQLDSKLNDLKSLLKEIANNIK

rat TRPM8, sequence (Q8R455 whole entry): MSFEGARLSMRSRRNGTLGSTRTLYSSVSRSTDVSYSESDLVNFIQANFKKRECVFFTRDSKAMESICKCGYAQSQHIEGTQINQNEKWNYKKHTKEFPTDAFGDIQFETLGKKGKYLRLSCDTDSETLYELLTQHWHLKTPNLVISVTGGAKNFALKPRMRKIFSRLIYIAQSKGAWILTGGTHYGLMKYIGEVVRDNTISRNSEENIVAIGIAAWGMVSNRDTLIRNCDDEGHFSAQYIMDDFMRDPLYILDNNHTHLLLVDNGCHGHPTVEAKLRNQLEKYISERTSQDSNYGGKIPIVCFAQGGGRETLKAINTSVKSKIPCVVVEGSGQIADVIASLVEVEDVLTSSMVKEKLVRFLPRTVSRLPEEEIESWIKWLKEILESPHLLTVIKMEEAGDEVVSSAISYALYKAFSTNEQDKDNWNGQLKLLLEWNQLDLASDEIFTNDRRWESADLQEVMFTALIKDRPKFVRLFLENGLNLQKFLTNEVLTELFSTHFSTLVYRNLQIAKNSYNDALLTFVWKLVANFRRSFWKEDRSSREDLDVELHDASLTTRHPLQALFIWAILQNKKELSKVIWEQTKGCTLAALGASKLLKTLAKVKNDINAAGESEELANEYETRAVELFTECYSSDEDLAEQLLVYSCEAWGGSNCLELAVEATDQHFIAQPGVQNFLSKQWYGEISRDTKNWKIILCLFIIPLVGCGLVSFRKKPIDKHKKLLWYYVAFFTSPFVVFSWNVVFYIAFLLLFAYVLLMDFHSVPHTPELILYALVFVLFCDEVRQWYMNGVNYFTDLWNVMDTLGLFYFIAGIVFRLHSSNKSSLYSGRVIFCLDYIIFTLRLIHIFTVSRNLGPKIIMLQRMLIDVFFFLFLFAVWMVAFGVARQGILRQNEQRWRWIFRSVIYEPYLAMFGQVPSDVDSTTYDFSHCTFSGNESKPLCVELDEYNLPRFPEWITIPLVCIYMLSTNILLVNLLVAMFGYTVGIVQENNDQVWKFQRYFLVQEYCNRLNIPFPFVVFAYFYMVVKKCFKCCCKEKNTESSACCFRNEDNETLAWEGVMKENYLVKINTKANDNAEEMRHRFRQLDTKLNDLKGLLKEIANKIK

**Q.** Which results are given for `CO[C@H]1C[C@@H]2CC[C@@H](C)[C@@](O)(O2)C(=O)C(=O)N2CCCC[C@H]2C(=O)O[C@H]([C@H](C)C[C@@H]2CC[C@@H](O)[C@H](OC)C2)CC(=O)[C@H](C)/C=C(\C)[C@@H](O)[C@@H](OC)C(=O)[C@H](C)C[C@H](C)/C=C/C=C/C=C/1C` [rapamycin]?
**A.** EC50 (rat TRPM8): 6.5 ± 1.5 µM; ΔV1/2 (mouse TRPM8 (mTRPM8)): −102.1 ± 5.2 mV
